# Data as given in BindingDB's records for doi:10.3109/14756366.2011.566221 (Instituto Politécnico Nacional, 2011).
# How the values were obtained:
# Assay in all cases: LDH Activity Assay
# Details in all cases: pH 7.4
# [1] = biological target: L-lactate dehydrogenase B chain (Mus musculus, UniProt P16125)
# Procedure: (§1) Lactate dehydrogenase activity was determined by recording the absorbance change at 340 nm produced by the oxidation of NADH. Assays were performed at 37°C. The reagent mixture contained 0.115 mM NADH, 50 mM sodium phosphate buffer, pH 7.4, sodium pyruvate (0.31 mM for LDH-C4 and LDH-B4 and 1.25 mM for LDH-A4) and the enzyme preparation, diluted with phosphate buffer, pH 7.4, to provide a ΔE340 of 0.06-0.07 per minute when the activity was assayed in a 1-cm light path. For determination of dissociation constants, the isozymes, the inhibitors (oxamate or oxamate derivatives) and the coenzyme were incubated with the buffer used in the assay for 10 min at 37°C before adding the substrate.
# [2] = biological target: L-lactate dehydrogenase C chain (Mus musculus, UniProt P00342)
# Sequence of L-lactate dehydrogenase C chain (P00342 whole entry): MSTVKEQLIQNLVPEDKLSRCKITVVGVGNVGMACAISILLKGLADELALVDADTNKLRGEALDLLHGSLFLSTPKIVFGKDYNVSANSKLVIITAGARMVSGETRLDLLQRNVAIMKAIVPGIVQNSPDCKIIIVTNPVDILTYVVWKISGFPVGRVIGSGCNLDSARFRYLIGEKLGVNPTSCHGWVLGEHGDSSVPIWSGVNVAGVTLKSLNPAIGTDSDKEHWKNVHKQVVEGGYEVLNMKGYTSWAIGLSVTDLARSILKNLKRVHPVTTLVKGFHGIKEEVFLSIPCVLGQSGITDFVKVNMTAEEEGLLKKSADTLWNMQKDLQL
# Procedure: as §1
# [3] = biological target: L-lactate dehydrogenase A chain (Mus musculus, UniProt P06151)
# Procedure: as §1
# Sequence of L-lactate dehydrogenase B chain (P16125 whole entry): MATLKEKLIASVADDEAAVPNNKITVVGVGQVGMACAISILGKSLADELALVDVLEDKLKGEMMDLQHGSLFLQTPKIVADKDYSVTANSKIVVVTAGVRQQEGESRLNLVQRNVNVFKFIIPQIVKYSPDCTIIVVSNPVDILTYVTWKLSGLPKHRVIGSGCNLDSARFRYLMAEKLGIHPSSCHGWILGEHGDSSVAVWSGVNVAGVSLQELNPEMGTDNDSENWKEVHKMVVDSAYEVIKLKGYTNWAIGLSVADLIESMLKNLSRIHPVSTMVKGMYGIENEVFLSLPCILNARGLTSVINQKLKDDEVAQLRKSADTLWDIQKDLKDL
Ki [1],Ki [2],Ki [3],Compound
7000 µM,750 µM,9100 µM,CCCCNC(=O)C(=O)O [N-Butyl oxamate]
35 µM,2 µM,140 µM,CCNC(=O)C(=O)O [N-Ethyl oxamate]
7000 µM,2000 µM,6000 µM,CC(C)CNC(=O)C(=O)O [N-Isobutyl oxamate]
887 µM,12 µM,1750 µM,CCCNC(=O)C(=O)O [N-Propyl oxamate]
14500 µM,400 µM,12500 µM,CCC(C)NC(=O)C(=O)O (stereo not drawn) [N-sec-Butyl oxamate]
60 µM,30 µM,80 µM,NC(=O)C(=O)O [carbamoylformic acid]
